# Laboratory results reported in patent US20210127673A1, “HERBICIDES” (SYNGENTA PARTICIPATIONS AG, priority 2016, published 2021).
# What was measured:
# Format in all cases: in vivo
# Details in all cases: 1000 g/ha, evaluated after 13 days
# [1] = system: Triticum aestivium (TRZAW); test: Pre-emergence herbicidal activity, Triticum aestivium; design: key: 5=total damage to plant; 0=no damage to plant
# How it was run: (§1)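 First, seeds were sown in standard soil and held one day under glasshouse conditions. Next, soil was sprayed with the active ingredient formulated in 50:50 acetone/water plus 0.5% Tween 20. Plants then grew at 24/16 °C day/night with 14 h light and 65% humidity before evaluation after 13 days.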
# Avena fatua (AVEFA) [2] = test: Pre-emergence herbicidal activity, Avena fatua; design: key: 5=total damage to plant; 0=no damage to plant
# How it was run: as §1
# [3] = system: Alopecurus myosuroides (ALOMY); test: Pre-emergence herbicidal activity, Alopecurus myosuroides; design: key: 5=total damage to plant; 0=no damage to plant
# How it was run: as §1
# [4] = system: Echinochloa crus-galli (ECHCG); test: Pre-emergence herbicidal activity, Echinochloa crus-galli
# How it was run: as §1
# Lolium perenne (LOLPE) [5] = test: Pre-emergence herbicidal activity, Lolium perenne; design: key: 5=total damage to plant; 0=no damage to plant
# How it was run: as §1
# Setaria faberi (SETFA) [6] = test: Pre-emergence herbicidal activity, Setaria faberi; design: key: 5=total damage to plant; 0=no damage to plant
# How it was run: as §1
# [7] = system: Triticum aestivium (TRZAW); test: Post-emergence herbicidal activity, Triticum aestivium; design: key: 5=total damage to plant; 0=no damage to plant
# How it was run: (§2)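 Pot-grown plants in standard soil were sprayed 8 days after sowing with active ingredient in acetone/water (50:50) containing 0.5% Tween 20. Glasshouse at 24/16 °C day/night, 14 h light, 65% humidity, watered twice daily. Damage scored after 13 days on 0 (none) to 5 (total) scale.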
# Avena fatua (AVEFA) [8] = test: Post-emergence herbicidal activity, Avena fatua
# How it was run: as §2
# [9] = system: Alopecurus myosuroides (ALOMY); test: Post-emergence herbicidal activity, Alopecurus myosuroides; design: key: 5=total damage to plant; 0=no damage to plant
# How it was run: as §2
# [10] = system: Echinochloa crus-galli (ECHCG); test: Post-emergence herbicidal activity, Echinochloa crus-galli; design: key: 5=total damage to plant; 0=no damage to plant
# How it was run: as §2
# Lolium perenne (LOLPE) [11] = test: Post-emergence herbicidal activity, Lolium perenne
# How it was run: as §2
# Setaria faberi (SETFA) [12] = test: Post-emergence herbicidal activity, Setaria faberi; design: key: 5=total damage to plant; 0=no damage to plant
# How it was run: as §2
compound,measurement,setting,value
C#CCNC(=O)Nc1ccc(-c2cncc(F)c2)nc1C(F)(F)F [Compound B41],Control of TRAZW after pre-emergence application (score 0-5),[1],0
same,Control of AVEFA after pre-emergence application (score 0-5),Avena fatua (AVEFA) [2],1
same,Control of ALOMY after pre-emergence application (score 0-5),[3],0
same,Control of ECHCG after pre-emergence application (score 0-5),[4],4
same,Control of LOLPE after pre-emergence application (score 0-5),Lolium perenne (LOLPE) [5],1
same,Control of SETFA after pre-emergence application (score 0-5),Setaria faberi (SETFA) [6],5
same,Control of TRAZW after post-emergence application (score 0-5),[7],0
same,Control of AVEFA after post-emergence application (score 0-5),Avena fatua (AVEFA) [8],3
same,Control of ALOMY after post-emergence application (score 0-5),[9],0
same,Control of ECHCG after post-emergence application (score 0-5),[10],4
same,Control of LOLPE after post-emergence application (score 0-5),Lolium perenne (LOLPE) [11],2
same,Control of SETFA after post-emergence application (score 0-5),Setaria faberi (SETFA) [12],5
CCCOC(=O)Nc1ccc(-c2cncc(F)c2)nc1C(F)(F)F [Compound B42],Control of TRAZW after pre-emergence application (score 0-5),[1],0
same,Control of AVEFA after pre-emergence application (score 0-5),Avena fatua (AVEFA) [2],3
same,Control of ALOMY after pre-emergence application (score 0-5),[3],1
same,Control of ECHCG after pre-emergence application (score 0-5),[4],4
same,Control of LOLPE after pre-emergence application (score 0-5),Lolium perenne (LOLPE) [5],1
same,Control of SETFA after pre-emergence application (score 0-5),Setaria faberi (SETFA) [6],5
same,Control of TRAZW after post-emergence application (score 0-5),[7],2
same,Control of AVEFA after post-emergence application (score 0-5),Avena fatua (AVEFA) [8],4
same,Control of ALOMY after post-emergence application (score 0-5),[9],1
same,Control of ECHCG after post-emergence application (score 0-5),[10],5
same,Control of LOLPE after post-emergence application (score 0-5),Lolium perenne (LOLPE) [11],3
same,Control of SETFA after post-emergence application (score 0-5),Setaria faberi (SETFA) [12],5
CC(C)COC(=O)Nc1ccc(-c2cncc(F)c2)nc1C(F)(F)F [Compound B43],Control of TRAZW after pre-emergence application (score 0-5),[1],1
same,Control of AVEFA after pre-emergence application (score 0-5),Avena fatua (AVEFA) [2],1
same,Control of ALOMY after pre-emergence application (score 0-5),[3],1
same,Control of ECHCG after pre-emergence application (score 0-5),[4],3
same,Control of LOLPE after pre-emergence application (score 0-5),Lolium perenne (LOLPE) [5],1
same,Control of SETFA after pre-emergence application (score 0-5),Setaria faberi (SETFA) [6],4
same,Control of TRAZW after post-emergence application (score 0-5),[7],2
same,Control of AVEFA after post-emergence application (score 0-5),Avena fatua (AVEFA) [8],4
same,Control of ALOMY after post-emergence application (score 0-5),[9],1
same,Control of ECHCG after post-emergence application (score 0-5),[10],4
same,Control of LOLPE after post-emergence application (score 0-5),Lolium perenne (LOLPE) [11],3
same,Control of SETFA after post-emergence application (score 0-5),Setaria faberi (SETFA) [12],5
CC(C)NC(=O)Nc1ccc(-c2cncnc2)nc1C(F)(F)F [Compound B44],Control of TRAZW after pre-emergence application (score 0-5),[1],0
same,Control of AVEFA after pre-emergence application (score 0-5),Avena fatua (AVEFA) [2],2
same,Control of ALOMY after pre-emergence application (score 0-5),[3],0
same,Control of ECHCG after pre-emergence application (score 0-5),[4],3
same,Control of LOLPE after pre-emergence application (score 0-5),Lolium perenne (LOLPE) [5],1
same,Control of SETFA after pre-emergence application (score 0-5),Setaria faberi (SETFA) [6],3
same,Control of TRAZW after post-emergence application (score 0-5),[7],1
same,Control of AVEFA after post-emergence application (score 0-5),Avena fatua (AVEFA) [8],3
same,Control of ALOMY after post-emergence application (score 0-5),[9],1
same,Control of ECHCG after post-emergence application (score 0-5),[10],4
same,Control of LOLPE after post-emergence application (score 0-5),Lolium perenne (LOLPE) [11],2
same,Control of SETFA after post-emergence application (score 0-5),Setaria faberi (SETFA) [12],4
"O=C1OCCN1c1ccc(-c2cncc(F)c2)nc1C(F)(F)F [Compound B45, 3-[6-(5-fluoro-3-pyridyl)-2-(trifluoromethyl)-3-pyridyl]oxazolidin-2-one]",Control of TRAZW after pre-emergence application (score 0-5),[1],0
same,Control of AVEFA after pre-emergence application (score 0-5),Avena fatua (AVEFA) [2],0
same,Control of ALOMY after pre-emergence application (score 0-5),[3],0
same,Control of ECHCG after pre-emergence application (score 0-5),[4],3
same,Control of LOLPE after pre-emergence application (score 0-5),Lolium perenne (LOLPE) [5],0
same,Control of SETFA after pre-emergence application (score 0-5),Setaria faberi (SETFA) [6],3
same,Control of TRAZW after post-emergence application (score 0-5),[7],1
same,Control of AVEFA after post-emergence application (score 0-5),Avena fatua (AVEFA) [8],3
same,Control of ALOMY after post-emergence application (score 0-5),[9],1
same,Control of ECHCG after post-emergence application (score 0-5),[10],4
same,Control of LOLPE after post-emergence application (score 0-5),Lolium perenne (LOLPE) [11],2
same,Control of SETFA after post-emergence application (score 0-5),Setaria faberi (SETFA) [12],4
CN1CCN(c2ccc(-c3cncc(F)c3)nc2C(F)(F)F)C1=O [Compound B46],Control of TRAZW after pre-emergence application (score 0-5),[1],0
same,Control of AVEFA after pre-emergence application (score 0-5),Avena fatua (AVEFA) [2],1
same,Control of ALOMY after pre-emergence application (score 0-5),[3],0
same,Control of ECHCG after pre-emergence application (score 0-5),[4],2
same,Control of LOLPE after pre-emergence application (score 0-5),Lolium perenne (LOLPE) [5],0
same,Control of SETFA after pre-emergence application (score 0-5),Setaria faberi (SETFA) [6],4
same,Control of TRAZW after post-emergence application (score 0-5),[7],0
same,Control of AVEFA after post-emergence application (score 0-5),Avena fatua (AVEFA) [8],3
same,Control of ALOMY after post-emergence application (score 0-5),[9],0
same,Control of ECHCG after post-emergence application (score 0-5),[10],4
same,Control of LOLPE after post-emergence application (score 0-5),Lolium perenne (LOLPE) [11],2
same,Control of SETFA after post-emergence application (score 0-5),Setaria faberi (SETFA) [12],4
NC(=O)Nc1ccc(-c2cncc(F)c2)nc1C(F)(F)F [Compound B47],Control of TRAZW after pre-emergence application (score 0-5),[1],0
same,Control of AVEFA after pre-emergence application (score 0-5),Avena fatua (AVEFA) [2],1
same,Control of ALOMY after pre-emergence application (score 0-5),[3],0
same,Control of ECHCG after pre-emergence application (score 0-5),[4],4
same,Control of LOLPE after pre-emergence application (score 0-5),Lolium perenne (LOLPE) [5],1
same,Control of SETFA after pre-emergence application (score 0-5),Setaria faberi (SETFA) [6],5
same,Control of TRAZW after post-emergence application (score 0-5),[7],0
same,Control of AVEFA after post-emergence application (score 0-5),Avena fatua (AVEFA) [8],3
same,Control of ALOMY after post-emergence application (score 0-5),[9],0
same,Control of ECHCG after post-emergence application (score 0-5),[10],4
same,Control of LOLPE after post-emergence application (score 0-5),Lolium perenne (LOLPE) [11],2
same,Control of SETFA after post-emergence application (score 0-5),Setaria faberi (SETFA) [12],5
CN1CCN(C(=O)Nc2ccc(-c3cncc(F)c3)nc2C(F)(F)F)CC1 [Compound B48],Control of TRAZW after pre-emergence application (score 0-5),[1],0
same,Control of AVEFA after pre-emergence application (score 0-5),Avena fatua (AVEFA) [2],1
same,Control of ALOMY after pre-emergence application (score 0-5),[3],0
same,Control of ECHCG after pre-emergence application (score 0-5),[4],3
same,Control of LOLPE after pre-emergence application (score 0-5),Lolium perenne (LOLPE) [5],1
same,Control of SETFA after pre-emergence application (score 0-5),Setaria faberi (SETFA) [6],4
same,Control of TRAZW after post-emergence application (score 0-5),[7],0
same,Control of AVEFA after post-emergence application (score 0-5),Avena fatua (AVEFA) [8],2
same,Control of ALOMY after post-emergence application (score 0-5),[9],0
same,Control of ECHCG after post-emergence application (score 0-5),[10],4
same,Control of LOLPE after post-emergence application (score 0-5),Lolium perenne (LOLPE) [11],1
same,Control of SETFA after post-emergence application (score 0-5),Setaria faberi (SETFA) [12],5
